Results from PMC6902473 (Clinical Epigenetics, 2019).
“And” between values parts separate entries of the source, which are not always exact repeats. Identical values can stand only once.

Legend:
[1] = clinical
Source text: The assays were validated according to the common FDA and EMA guidelines on bioanalytical method validation.

[2] = daily and continuous dosing; cited from earlier work
[3] = human, in vivo

## O=C(CCCCCCC(=O)Nc1ccccc1)NO [vorinostat]
[1]; human, in vivo, po
  Clearance, 25% Percentile: 181 L/h
  Cmax/D: 1.70 ± 1.18 (ng/mL)/(mg/d)
  Vz: 644 ± 460 L
  Vz, 25% Percentile: 397 L
  t½: 1.98 ± 0.96 h
[1]; human, in vivo, po, 530 mg/m2
  Clearance, Mean: 408 L/h
  Clearance, Median: 304 L/h
  Vz, Maximum: 1330 L
  Vz, Mean: 1008 L
  Vz, Median: 1186 L
[1]; human, in vivo, po, 530 mg/m2, AUClast, Median
  AUC(0-t): 5.82 µM·h and 1540 ng·h/mL
[1]; human, in vivo, po, 530 mg/m2, Tmax, Mean
  Tmax: 2.17 h
[1]; human, in vivo, po, 530 mg/m2, t1/2, Mean
  half-life: 1.84 h
[1]; human, in vivo, po, 530 mg/m2, t1/2, Median
  half-life: 1.46 h
[1]; human, in vivo, po, 580 mg/m2
  AUClast, Median: 10.3 µM·h
  Clearance, Maximum: 453 L/h
  Clearance, Mean: 295 L/h
  Clearance, Median: 211 L/h
  Clearance, Minimum: 155 L/h
  Cmax, Maximum: 1.689 µg/mL
  Cmax, Minimum: 0.315 µg/mL
  Tmax, Maximum: 2.00 h
  Tmax, Mean: 1.40 h
  Vz, Maximum: 2135 L
  Vz, Mean: 793 L
  Vz, Median: 480 L
  t1/2, Maximum: 3.30 h
  t1/2, Minimum: 0.850 h
[1]; human, in vivo, po, 580 mg/m2, AUClast, Mean
  AUC(0-t): 11.3 µM·h
[1]; human, in vivo, po, 580 mg/m2, Cmax, Mean
  Cmax: 4.33 µM and 1140 ng/mL
[1]; human, in vivo, po, 580 mg/m2, Cmax, Median
  Cmax: 5.42 µM and 1430 ng/mL
[1]; human, in vivo, po, 580 mg/m2, t1/2, Mean
  half-life: 1.78 h
[1]; human, in vivo, po, 580 mg/m2, t1/2, Median
  half-life: 1.62 h
[1]; human, in vivo, po, Tmax
  Tmax: 2.07 ± 1.37 h
[1]; read-out: Cmax, Maximum, 530 mg/m2/d oral, plasma, maximum of 3 values
  Cmax: 2.38 µM
[1]; read-out: Cmax, Minimum, 530 mg/m2/d oral, plasma, minimum of 3 values
  Cmax: 1.71 µM
[2]
  pediatric recommended phase 2 dose: 230 mg/m^2/day
[3]
  Patients with all causalities AE: AE: 49 (98) No. (%)
  Patients with all causalities AE: AE leading to dose reduction or temporary treatment discontinuation: 38 (76) No. (%)
  Patients with all causalities AE: AE leading to treatment discontinuation: 9 (18) No. (%)
  Patients with all causalities AE: SAEs: 19 (38) No. (%)
  Patients with all causalities AE: Severe AEs (CTCAE grade 3/4): 48 (96) No. (%)
  Patients with treatment related AE: Alanine aminotransferase increased: 2 (4.0) Patients (%)
  Patients with treatment related AE: Alopecia: 9 (18.0) Patients (%)
  Patients with treatment related AE: Anemia: 8 (16.0) Patients (%)
  Patients with treatment related AE: Blood creatinine increased: 5 (10.0) Patients (%)
  Patients with treatment related AE: Blood lactate dehydrogenase increased: 4 (8.0) Patients (%)
  Patients with treatment related AE: Constipation: 4 (8.0) Patients (%)
  Patients with treatment related AE: Cough: 3 (6.0) Patients (%)
  Patients with treatment related AE: Decreased appetite: 5 (10.0) Patients (%)
  Patients with treatment related AE: Diarrhea: 11 (22.0) Patients (%)
  Patients with treatment related AE: Dry skin: 4 (8.0) Patients (%)
  Patients with treatment related AE: Fatigue: 9 (18.0) Patients (%)
  Patients with treatment related AE: Headache: 5 (10.0) Patients (%)
  Patients with treatment related AE: Nausea: 11 (22.0) Patients (%)
  Patients with treatment related AE: Platelet count decreased: 6 (12.0) Patients (%)
  Patients with treatment related AE: Pyrexia: 3 (6.0) Patients (%)
  Patients with treatment related AE: Vomiting: 8 (16.0) Patients (%)
  Patients with treatment related AE: Weight decreased: 5 (10.0) Patients (%)
  Patients with treatment related AE: White blood cell decreased: 1 (2.0) Patients (%)
  Total of patients with treatment related AE: Alanine aminotransferase increased: 4 (8.0, 2.2 - 19.2) Patients (%, 95% CIs)
  Total of patients with treatment related AE: Alopecia: 9 (18.0, 8.6 - 31.4) Patients (%, 95% CIs)
  Total of patients with treatment related AE: Blood creatinine increased: 5 (10.0, 3.3 - 21.8) Patients (%, 95% CIs)
  Total of patients with treatment related AE: Blood lactate dehydrogenase increased: 4 (8.0, 2.2 - 19.2) Patients (%, 95% CIs)
  Total of patients with treatment related AE: Constipation: 4 (8.0, 2.2 - 19.2) Patients (%, 95% CIs)
  Total of patients with treatment related AE: Decreased appetite: 7 (14.0, 5.8 - 26.7) Patients (%, 95% CIs)
  Total of patients with treatment related AE: Headache: 6 (12.0, 4.5 - 24.3) Patients (%, 95% CIs)
  Total of patients with treatment related AE: Weight decreased: 8 (16.0, 7.2 - 29.1) Patients (%, 95% CIs)
  Total of patients with treatment related AE: White blood cell decreased: 9 (18.0, 8.6 - 31.4 ) Patients (%, 95% CIs)
  Total sum of DLTs: Abdominal pain: 1
  Total sum of DLTs: Abdominal pain upper: 2
  Total sum of DLTs: Aggression: 1
  Total sum of DLTs: Alanine aminotransferase increased: 3
  Total sum of DLTs: Anemia: 2
  Total sum of DLTs: Apathy: 1
  Total sum of DLTs: Decreased appetite: 3
  Total sum of DLTs: Fatigue: 7
  Total sum of DLTs: Febrile infection: 2
  Total sum of DLTs: Hypermagnesemia: 3
  Total sum of DLTs: Hypokalemia: 1
  Total sum of DLTs: Loss of personal independence in daily activities: 1
  Total sum of DLTs: Vomiting: 2
  Total sum of DLTs: Weight decreased: 2
  Total sum of DLTs: White blood cell decreased: 11
